From paper PMC12344774, “Ferrocenyl Quinoline-Benzimidazole Hybrids: A Multistage Strategy to Combat Drug-Resistant Malaria” (Inorganic Chemistry, 2025) come the findings set out here.

Like-named read-outs stand apart in the source and are kept apart here.

For data set [1], the system named is PfNF54. Description: In vitro ABS antiplasmodial activity, pLDH assay, drug-sensitive NF54. Conditions: read-out: PfNF54 IC50 ± SEM. In kind it is cell-based, Plasmodium falciparum. From the text: (§1) This side chain is also present in the well-known antiplasmodial agent, FQ.
(§2) Test samples were screened in technical duplicate or triplicate, for three or four biological replicates, for their in vitro blood stage antiplasmodial activity against both the drug-sensitive (NF54) and multidrug-resistant (K1) strains of . Continuous in vitro cultures of asexual erythrocyte stages of were maintained using a modified method of Trager and Jensen. A quantitative assessment of the in vitro antiplasmodial activity was determined via the parasite lactate dehydrogenase (pLDH) assay, using a modified method described by Makler and Hinrichs.
(§3) The test samples were prepared to a 20 mg/mL stock solution in 100% DMSO. Stock solutions were stored at −20 °C. Further dilutions were prepared in complete medium on the day of the experiment. […] Chloroquine diphosphate (CQDP) was used as the reference drug in all experiments. Test samples were tested at a starting concentration of either 100 μg/mL, 50 μg/mL, 10 μg/mL, or 1 μg/mL, which was then serially diluted 2-fold, in complete medium, to give 10 concentrations. The same dilution technique was used for all samples. […] The IC50 values were obtained from full dose–response curves, using a nonlinear dose–response curve fitting analysis, via GraphPad Prism v.5 software.

Data set [2] deals with PfK1. Description: microbe, parasite or virus in culture. In kind it is cell-based, Plasmodium falciparum. The following applies: read-out: PfK1 IC50 ± SEM.
Description: as §1, §2, §3

The subject of data set [3] is Immature gametocytes (>90% stage II/III). Description: microbe, parasite or virus in culture. The following applies: for % Inhibition, immature gametocytes: maximum inhibition at 10 μM, 48 h drug pressure; for inhibition at 5 µM: Plasmodium falciparum, read-out: % Inhibition, immature gametocytes (controls). In kind it is cell-based, Plasmodium falciparum. Here is the method: (§4) Compounds are diluted 3-fold in at least a 9-point serial dilution series starting at 20 μM, with a nonlethal DMSO concentration of <0.1% maintained. Luciferase activity was determined in 30 μL parasite lysates by adding 30 μL luciferin substrate (Promega Luciferase Assay System) at room temperature and detection of resultant bioluminescence at an integration constant of 10 s with the GloMax-Multi + Detection System with Instinct Software. Methylene blue (5 μM) and the clinical antimalarial candidate MMV390048 (5 μM) were used as controls. IC50 values were determined in GraphPad Prism using a nonlinear regression fit with variable slope (4-parameter) on the dose–response data.
(§5) Assay quality parameters are evaluated for each assay, including Z′-factors (data quality compared to reproducibility using signal, noise, and background parameters; accepted metric >0.6), regression (accepted r 2 > 0.9); >80% viable parasites (top plateau); <20% killed parasites (bottom plateau), hill slope ∼1.

Data set [4] has as its system Mature gametocytes (>95% stage V). Description: microbe, parasite or virus in culture. In kind it is cell-based, Plasmodium falciparum. Conditions: for % Inhibition, mature gametocytes: maximum inhibition at 10 μM, 48 h drug pressure; for inhibition at 5 µM: Plasmodium falciparum, read-out: % Inhibition, mature gametocytes (controls). On the procedure:
as §4, §5

Data set [5] deals with β-hematin formation. Description: NP-40 detergent-mediated β-hematin formation inhibition assay (cell-free). In kind it is biochemical. Conditions: NP-40, pH 4.8, 5 h, 37 °C, read-out: β-hematin formation inhibition IC50 ± SEM. From the text:
The ability of a compound to inhibit Hz formation can be predicted using the biomimetic cell-free NP40 detergent-mediated β-hematin formation inhibition assay. , This assay mimics the conditions in the acidic DV of the parasite and relies on the binding of pyridine to uncrystallized free heme to detect the inhibition of β-hematin formation using UV–vis spectroscopy (with absorbance measured at 405 nm). , Consequently, the ability of the ferrocenyl quinoline-benzimidazole hybrids (C1–C5) to inhibit β-hematin (synthetic Hz) formation was investigated as a potential mechanism of antiplasmodial action.
The β-hematin formation inhibition assay was modified from the method reported by Sandlin et al. , Stock solutions of the respective test compounds were prepared to 10 mM, in 100% DMSO, with the exception of CQ (used in the salt form, CQDP), which was prepared in Milli-Q water. […] NP-40 is a detergent used to mediate the formation of β-hematin. The solution in column 12 was then serially diluted 2-fold, through to column 2, to give a total of 11 concentrations. Column 1 contained 0 μM of the test compound and thus served as a blank. […] A 178.8 μL aliquot of this hematin suspension was added to 20.0 mL of a 2 M acetate buffer (pH = 4.8) and 100 μL of this solution added to each well. The plates were then covered and incubated for 5 h, at 37 °C. The assay was analyzed using the pyridine-ferrochrome method developed by Ncokazi and Egan. A solution containing water/acetone/2 M HEPES buffer (pH 7.4)/pyridine, in a v/v ratio of 2/2/1/5, was prepared and 32 μL was added to all wells, followed by 60 μL of acetone. The absorbance values were then measured at 405 nm, the results plotted using GraphPad Prism (v5), and the IC50 values obtained using a sigmoidal dose–response curve fitting analysis.

Data set [6] is described as follows: Hydroxyl radical (ROS) generation with H2O2, DCFH2 fluorescent probe. Conditions: 200 μM in 1:4 DMSO/PBS, H2O2 and H2DCF added, 30 min. From the text: Fluorogenic redox-sensitive probes are often employed to measure the presence of ROS, due to their low cost, ease of use, and nontoxicity, allowing for spectrofluorimetric measurements. 2′,7′-Dichlorodihydrofluorescein diacetate (DCFH2-DA) is the most widely used fluorogenic probe. Cleavage of the acetate groups, through alkaline hydrolysis, generates 2′,7′-dichlorodihydrofluorescein (DCFH2), which in the presence of oxidants, yields the highly fluorescent 2′,7′-dichlorofluorescein (DCF, λem = 523 nm). The DCFH2 probe reacts with an array of oxidants, making it an ideal indicator of general oxidative stress. […] The presence of these radicals was confirmed by monitoring the fluorescence over time (Figure ). […].
Stock solutions of DCFH2-DA were prepared to 1 mM in 100% DMSO and stored at −20 °C in the dark until use. The deacetylation of DCFH2-DA involved adding 2 μL of a 0.5 M NaOH solution to 200 μL of the 1 mM DCFH2-DA stock solution. The solution was mixed for 30 min, in the dark, at room temperature and then quenched with 800 μL of PBS buffer to obtain a 200 μM H2DCF 1:4 DMSO/PBS solution mixture.
[…]. The fluorometer was blanked using a 1:4 DMSO/PBS solution mixture. To identify hydroxyl radical production, 2 μL of a 0.5% H2O2 solution was added to 900 μL of the 200 μM complex solution in a cuvette at 25 °C. 100 μL of the prepared H2DCF solution (200 μM) was quickly added, and the readings recorded at 530 nm (emission wavelength), at 2 min intervals, over 30 min.

The nature of data set [7]: Cyclic voltammetry of the ferrocene/ferrocenium couple. In kind it is physicochemical. Conditions: for Reversibility of the ferrocene/ferrocenium couple: DCM/0.1 M TBAP system; for Anodic peak potential Epa / Cathodic peak potential Epc / Half-wave potential E1/2: vs Ag/AgCl; for Anodic peak potential Epa / Ipc/Ipa / ΔE / Cathodic peak potential Epc / Half-wave potential E1/2: scan rate 100 mV/s, CH2Cl2, 0.1 M TBAP. Here is the method:
It has been proposed that the oxidation of ferrocene (Fe(C5H5)2) to the ferrocenium cation (Fe(C5H5)2 ^+) is a reversible one-electron transfer process. […] This prompted the investigation into the electrochemical properties of the Fe(C5H5)2/Fe(C5H5)2 ^+ couple in complexes C1–C5, using cyclic voltammetry. FQ was used as the reference, as it is considered the benchmark for all newly developed ferrocenyl-based antiplasmodials.
Nuclear magnetic resonance (NMR) spectra were recorded on a Bruker XR600 MHz spectrometer (^1H at 599.95 MHz and ^13C{^1H} at 151.0 MHz), a Bruker […] (^1H at 400.22 MHz and ^13C{^1H} at 100.65 MHz), or a Varian Mercury 300 (^1H at 300.08 MHz) spectrometer. These were equipped with a Bruker Biospin GmbH casing and sample injector at 30 °C and tetramethylsilane (TMS) was used as the internal standard. Coupling constants are reported in Hz and chemical shifts are reported in ppm relative to residual solvent signals. Infrared (IR) spectroscopy was performed on a PerkinElmer Spectrum 100 FT-IR spectrometer, using attenuated total reflectance (ATR), with vibrations measured in units of cm^–1. Cyclic voltammetric measurements were carried out at ambient temperature under an inert argon atmosphere using a three-electrode system on a BASi Epsilon Eclipse potentiostat/galvanostat electrochemical workstation. The C-3 cell stand, equipped with a glassy carbon working electrode, Ag/AgCl (saturated NaCl) reference electrode, and a Pt wire auxiliary electrode were used to carry out electrochemical measurements. All experiments were carried out in anhydrous dichloromethane containing 0.10 M tetra-n-butylammonium perchlorate (TBAP) as the supporting electrolyte.

Data set [8] relates to CHO cell line.
Description: (§6) The samples were tested over 48 h against the Chinese hamster ovarian (CHO) cell line to determine general cytotoxicity. […] Quantitative assessment of toxic activity in vitro was determined via the MTT assay using the method described. Cell viability was determined colorimetrically using the breakdown of a dye by enzymes of the electron transport chain, taking place in the mitochondria of metabolically active living cells, as a marker for survival.
(§7) Compounds were tested in triplicate on a single occasion against these cells using the MTT assay. The test samples were prepared to a 10 mM stock solution, in 100% DMSO, and stored at −20 °C until use. Samples were tested as a suspension if not completely dissolved. Further dilutions to the desired starting concentration were freshly prepared in growth media at the start of the experiment.
(§8) Cells were plated to a density of 10^5 cells/well in 96-well plates and allowed to attach for 24 h. […] After 44 h MTT was added, and the plates were read 4 h later at 540 nm on a spectrophotometer following the addition of 100 μL of DMSO and gentle plate-shaking to solubilize and visualize the dye. Survival was plotted against concentration, and the IC50 values were obtained using a nonlinear dose–response curve fitting analysis via the Dotmatics software platform.
Data set [9] concerns CHO cell line. Description: Cytotoxicity, MTT assay. Conditions: selectivity index.
Description: as §6, §7, §8
The mark [10] stands for this setting: drug-sensitive NF54, ABS, pLDH, 48 h incubation.
The mark [11] stands for this setting: MDR K1, ABS, pLDH, 48 h incubation.

Consider `Cc1ccc2c(c1)nc(-[c-]1cccc1CN(C)C)n2CCNCCNc1ccnc2cc(Cl)ccc12.[Fe+2].c1cc[cH-]c1` (stereo not shown) [Complex C4, N1-(7-Chloroquinolin-4-yl)-N2-(2-(5-methyl-2-(2-N,N-dimethylaminomethyl)ferrocenyl-1H-benzo[d]imidazole-1-yl)ethyl)ethane-1,2-diamine], for which the results for the IC50 in data set [1] (setting [10]), in data set [2] (setting [11]) and in [5] were 0.038 ± 0.003 µM, 0.17 ± 0.02 µM and 4.9 µM, respectively. The “% Inhibition, immature gametocytes” value in data set [3] is 59%. Moreover, the “% Inhibition, mature gametocytes” value in [4] was 72%. Also, the “Hydroxyl radical generation (fluorescence intensity over time)” value in data set [6] is listed as “produce hydroxyl radicals”. Besides, in data set [7], the “Reversibility of the ferrocene/ferrocenium couple” value was “chemically and electrochemically irreversible”. For the same compound, the “Anodic peak potential Epa” value in [7] is 0.662 V. Also, the midpoint of cytotoxicity in data set [8], the CC50, lay at 29.8 ± 0.5 µM. Also, the “SI (CC50 CHO/IC50 NF54)” value in [9] stood at 784.2.

Turning to `CN(C)c1ccc2nc3ccc(=[N+](C)C)cc-3sc2c1` [Methylene blue, reference compound], the inhibition (commonly the change of the read-out against control, counted positive when it falls) at 5 µM is more than 97% in data set [3] and 100% in [4].

As to `Cc1ccc2c(c1)nc(-[c-]1cccc1)n2CCNCCNc1ccnc2cc(Cl)ccc12.[Fe+2].c1cc[cH-]c1` [Complex C2, N1-(7-Chloroquinolin-4-yl)-N2-(2-(5-methyl-2-ferrocenyl-1H-benzo[d]imidazole-1-yl)ethyl)ethane-1,2-diamine], the IC50 – broadly, the concentration that inhibits the measured activity by half – in data set [1] (setting [10]) came out at 0.038 ± 0.002 µM. Further, the IC50 in [2] (setting [11]) turned out to be 0.0094 ± 0.0009 µM. The “% Inhibition, immature gametocytes” value in data set [3] is 75%. Besides, in [4], the “% Inhibition, mature gametocytes” value amounted to 32%. In addition, the half-maximal inhibitory concentration (IC50) in data set [5] was 4.47 µM. Further, in data set [6], the “Hydroxyl radical generation (fluorescence intensity over time)” value is reported as “no changes in the fluorescence intensity”. In [7], the “Reversibility of the ferrocene/ferrocenium couple” value is “chemically and electrochemically reversible”; the Ipc/Ipa is recorded as 1.03; the ΔE came to 0.133 V; the “Anodic peak potential Epa” value is 0.651 V. Further, in [7], the “Cathodic peak potential Epc” value is 0.518 V and the “Half-wave potential E1/2” value was 0.584 V. For the same compound, the CC50 (commonly the concentration giving 50% cytotoxicity) in data set [8] is more than 50 µM.

For `CCN(CC)CCCC(C)Nc1ccnc2cc(Cl)ccc12` (stereo not shown) [CQ, chloroquine, reference compound], the IC50 in [1] (Plasmodium falciparum, NF54, 48 h) is 0.015 ± 0.001 µM; in [2] (Plasmodium falciparum, 48 h), 0.17 ± 0.01 µM; in data set [5], 11 ± 0.87 µM.

For `[Fe+2].c1cc[cH-]c1.c1cc[cH-]c1` [Ferrocene, reference compound], the “Hydroxyl radical generation (fluorescence intensity over time)” value in data set [6] is “generate hydroxyl radicals”. Besides, in [7], the Ipc/Ipa was found to be 1.05, the ΔE was determined as 0.171 V, the “Anodic peak potential Epa” value is reported as 0.543 V and the “Cathodic peak potential Epc” value is 0.372 V. Besides, the “Half-wave potential E1/2” value in data set [7] stood at 0.458 V.

As to `Cc1ccc2c(c1)nc(-[c-]1cccc1)n2CCN(CCNc1ccnc2cc(Cl)ccc12)[c-]1cccc1.[Fe+2].[Fe+2].c1cc[cH-]c1.c1cc[cH-]c1` [Complex C5, N1-Ferrocenyl-N2-(7-Chloroquinolin-4-yl)-N1-(2-(5-methyl-2-ferrocenyl-1H-benzo[d]imidazole-1-yl)ethyl)ethane-1,2-diamine], in [1] (setting [10]), the IC50 was determined as 1.51 ± 0.14 µM. Besides, the IC50 in data set [2] (setting [11]) was 14.5 ± 1.14 µM. For the same compound, in data set [3], the “% Inhibition, immature gametocytes” value is on record as 60%. In addition, the “% Inhibition, mature gametocytes” value in [4] is given as 32%. Moreover, the half-inhibitory concentration (IC50) in data set [5] came to 37.7 ± 0.77 µM. Moreover, the “Hydroxyl radical generation (fluorescence intensity over time)” value in [6] is given as “no changes in the fluorescence intensity”. Also, in data set [7], the “Reversibility of the ferrocene/ferrocenium couple” value was “chemically and electrochemically reversible”; the Ipc/Ipa came to 1.04; the ΔE is on record as 0.190 V; the “Anodic peak potential Epa” value came out at 0.632 V. For the same compound, in data set [7], the “Cathodic peak potential Epc” value is 0.442 V and the “Half-wave potential E1/2” value is on record as 0.537 V. Also, the CC50 in data set [8] was more than 50 µM.

Regarding `CS(=O)(=O)c1ccc(-c2cnc(N)c(-c3ccc(C(F)(F)F)nc3)c2)cc1` [MMV390048, reference compound], the inhibition at 5 µM in [3] was more than 77%; in [4], more than 93%.
